Data: the OPERA property sets (Mansouri et al. 2018)

SMILES	logP
C#CC1(O)CCC2C3CCc4cc(O)ccc4C3C(CC)CC21C (stereo not drawn)	4.28
CC(O)c1ccc2ccccc2c1 (stereo not drawn)	2.68
OC(CN1CCCC1)(c1ccc(F)cc1)c1ccc(-c2ccncc2)cc1 (stereo not drawn)	3.84
CCCN(C(C)=O)C(C)C	1.48
CO[C@@]1(NC(=O)Cc2cccs2)C(=O)N2C(C(=O)O)=C(COC(N)=O)CS[C@@H]21	-0.02
Oc1cc2ccccc2cc1O	2.24
C#CC1(O)C(F)CC2C3CCc4cc(O)ccc4C3CCC21C (stereo not drawn)	3.3
CC(C)NCC(O)COc1cccc(CC(N)=O)c1 (stereo not drawn)	0.22
O=[N+]([O-])c1cc(F)cc(F)c1	2.03
Cc1ccc(S(=O)(=O)NC(=O)Nc2ccccc2)cc1	3.11
CCCOc1ccc(Cc2cnc(N)nc2N)cc1OC	2.02
CC(=O)Nc1nc(NCC(O)CO)c(Cl)nc1[N+](=O)[O-] (stereo not drawn)	0
Cc1cc(C)cc(C2C(=O)c3ccccc3C2=O)c1	4.02
CCCC(O)C(=O)O (stereo not drawn)	0.45
NNc1nncc2ccccc12	1
CCC1(c2ccccc2)C(=O)NC(=O)N=C1OC(C)C (stereo not drawn)	2.22
N[C@@H](Cc1ccc(O)c(O)c1)C(=O)O	-2.39
CCCCCCCC1CC(C(=O)Nc2c(C(C)C)cccc2C(C)C)C(=O)O1 (stereo not drawn)	4.72
OC(CN1CCOCC1)(c1ccc(F)cc1)c1ccc(-c2ccncc2)cc1 (stereo not drawn)	2.82
CN(C)CCCCN(Cc1ccc(C(C)(C)C)cc1)c1ccccc1	5.53
O=C(CN1CCCC1)NCc1ccccc1	1.69
CCCCc1ccc(O)cc1	3.65
CNC(=O)OC1OC(=O)C2C3C=CC(C3)C12 (stereo not drawn)	0.63
CCNC(=O)NS(=O)(=O)c1ccc(Cl)cc1	1.79
O=C1c2ccccc2C(=O)C1c1cccc(C(F)(F)F)c1	3.78
CCCn1c(=O)n(C)c(=O)c2nc[nH]c21	1.02

SMILES	logP
CCCNCC(O)COc1ccc(-c2ncc(-c3cccs3)[nH]2)cc1 (stereo not drawn)	2.84
CC(=O)OCC1OC(n2ccc(N)nc2=O)C(OC(C)=O)C1OC(C)=O (stereo not drawn)	-0.8
O=C(COc1ccc(OCCNCC(O)COc2ccccc2)cc1)N1CCCCC1 (stereo not drawn)	2.6
CCOC(=O)C(CC(C)C)NC(=O)CNC(=O)CNC(=O)CCCCSc1ncnc2nc[nH]c12 (stereo not drawn)	1.07
CC1CC(C)(C)CC(c2ccccc2)(N2CCCCC2)C1 (stereo not drawn)	6.35
O=C(O)c1ccc(Cl)cc1Nc1ccc(Cl)cc1	4.97
C=C(C)C(=O)OCc1ccccc1	2.53
Cc1ccc(C)c(O)c1C	2.67
COCCc1cnc(-c2ccc(OCC(O)CNCCc3ccc(OC)c(OC)c3)cc2)[nH]1 (stereo not drawn)	2.06
CC(=O)c1ccc(C(O)(Cn2ccnc2)c2ccc(-c3ccncc3)cc2)cc1 (stereo not drawn)	2.41
COCc1ccc(C#N)cc1	1.23
O=C(c1ccc(F)cc1F)c1ccc2n1CCC2C(=O)O (stereo not drawn)	2.59
COc1ccccc1N1CCN(CCCNc2cc(=O)n(C)c(=O)n2C)CC1	1.6
Cc1cccc(C)c1OC(=O)c1ccc(N)cc1O	3.88
CC(C)C(Nc1ccccc1)C(=O)OCc1ccccc1 (stereo not drawn)	4.41
OC(CCN1CCCCC1)(c1ccccc1)C1CCCCC1 (stereo not drawn)	4.49
CC(N)CC1CCCCC1 (stereo not drawn)	2.96
c1ccc(-c2nccs2)cc1	2.77
C#CCC(O)(CC#C)c1cccnc1	1.29
CNC(C)C(OC)c1ccccc1 (stereo not drawn)	2.05
CC(C)c1nnc(SCC(=O)c2ccccc2)n(N)c1=O	2.07
CC1OC(OC2CCC3(C)C(CCC4C3CC(O)C3(C)C(C5=CC(=O)OC5)CCC43O)C2)CC(O)C1O (stereo not drawn)	1.09
CNC(=O)COc1ccc(OCC(O)CNC(C)C)cc1 (stereo not drawn)	0.56
COC(C)(OC)c1ccc(C(O)(Cn2ccnc2)c2ccc(-c3ccncc3)cc2)cc1 (stereo not drawn)	3.45
CCC1OC(=O)C(C)C(OC2CC(C)(OC)C(OC(C)=O)C(C)O2)C(C)C(OC2OC(C)CC(N(C)C)C2O)C(C)(O)CC(C)C(=O)C(C)C(O)C1C (stereo not drawn)	3.23
CCC1(CC)C(=O)NC(=O)N=C1OC(C)C	1.86

SMILES	logP
CCC(C(=O)OCc1ccccc1)C(COC(=O)c1cccnc1)Cc1cncn1C (stereo not drawn)	3.05
CC(C)(C)c1cccc(O)c1	3.3
CC(C)c1cccc(C(C)C)c1NC1=NCCN1	3.04
O=C1Nc2ccccc2CC1c1ccccc1 (stereo not drawn)	2.93
CCCCCc1cc(OCCCCN)c2c(c1)OC(C)(C)C1CC=C(C)CC21 (stereo not drawn)	8.38
CCCCOC(=O)COc1cc(Cl)c(Cl)cc1Cl	4.81
OCc1cc(Cl)cc(Cl)c1O	2.3
OCc1cc(Cl)ccc1O	1.44
CCC(C(=O)NC(N)=O)(C(=O)OC)c1ccccc1 (stereo not drawn)	1.58
Clc1ccc(-c2ccccc2Cl)cc1	5.09
CCCCCC(=O)OCC(Cc1cncn1C)C(CC)C(=O)OCc1ccccc1 (stereo not drawn)	4.75
CC(=O)NCc1cccc(OCC(O)CNC(C)C)c1 (stereo not drawn)	0.34
C=C1C(=O)O[C@H]2[C@H]1[C@H](OC(=O)/C(C)=C\C)CC(=C)[C@@H]1[C@H](O)[C@H]3O[C@@]3(C)[C@@]12O	1.69
CCCCC/C=C\C/C=C\C/C=C\C/C=C\CCCC(=O)O	6.98
COc1ccc(NC(=O)CN2CCCCC2)cc1	2.52
[N-]=[N+]=N[C@H]1C[C@H](n2ccc(N)nc2=O)O[C@@H]1CO	-0.7
CCN1CC(C(O)C(CC2CCCCC2)NC(=O)C(Cc2cnc[nH]2)NC(=O)C(CC(=O)N(C)CCOCOCCOC)Cc2ccccc2)OC1=O (stereo not drawn)	2.21
OC1c2ccccc2C2CCCCC2C1O (stereo not drawn)	2.47
Cc1cc(Br)cc(C(=O)NC(C)C)c1O	4.19
CCCCCCCCCC[N+](C)(C)C.[I-]	-0.16
CCCCCCC(C)(C)c1cc(O)c2c(c1)OC(C)(C)C1CCC(CO)=CC21 (stereo not drawn)	7.83
CCCCCCCCCCCC(=O)O	4.6
Cc1cccc(N=C2NCCN2)c1Cl	1.83
CC(C)(C)c1cccc(C2C(=O)c3ccccc3C2=O)c1	4.88
Cc1cccc(C)c1NC(=O)CCCC(C)N (stereo not drawn)	1.41
Clc1ccc(-c2ccccc2)c(Cl)c1	5.16

SMILES	logP
CCN(CC)CCNC(=O)c1ccc(N)cc1OC	1.4
CCN(CC)CCCN(C(=O)Cc1ccccc1)c1c(C)cccc1C	4.94
C[C@H]1O[C@@H](O[C@H]2CC[C@@]3(C)[C@H](CC[C@@H]4[C@@H]3CC[C@]3(C)[C@@H](C5=CC(=O)OC5)[C@@H](O)C[C@]43O)C2)C[C@H](O)[C@@H]1O	1.77
C=C1C(=O)OC2C=C(C)C(OC(C)=O)CC(O)C(C)=CC(OC(=O)C(C)=CC)C12 (stereo not drawn)	1.16
CCCNC(=O)COc1ccc(OCCNCC(O)COc2ccccc2)cc1 (stereo not drawn)	2.4
Nc1ccn([C@H]2C=C[C@@H](CO)O2)c(=O)n1	-1.55
Cn1c([N+](=O)[O-])cnc1/C=C/c1ccnc(N)n1	0.85
CC(=O)Nc1ccccc1C(N)=O	0.32
COc1ccc(CCNCC(O)COc2ccc(-c3nc(C(C)=O)c(C)[nH]3)cc2)cc1OC (stereo not drawn)	2.14
O=C(O)c1cc(-c2ccc(F)cc2F)ccc1O	4.44
CN1CCC(=C2c3ccccc3C=Cc3ccccc32)CC1	4.69
CCn1c(=O)n(C)c(=O)c2[nH]cnc21	0.52
CCCCCCCCCCCCCCCCCCCC(=O)O	9.29
O=C(c1ccc2n1CCC2C(=O)O)C1CCC1 (stereo not drawn)	2.41
CC1c2nc3ccccc3c(=O)n2CN1CCc1ccccc1 (stereo not drawn)	1.8
Nc1ncnc2c1ncn2[C@H]1CC[C@@H](CO)O1	-0.25
O=C(CN1CCCCC1)NCc1ccccc1	2.27
CCOC(=O)C(C(=O)OC(C)C)=C1SCCS1	2.9
CCN1CCCCC1	1.75
CCN(CC)C(C)C(=O)Nc1c(C)cccc1C (stereo not drawn)	2.73
Cc1[nH]c2ccccc2c1C	3.05
C[C@H]1O[C@@H](O[C@H]2[C@@H](O)C[C@H](O[C@H]3[C@@H](O)C[C@H](O[C@H]4CC[C@@]5(C)[C@H](CC[C@@H]6[C@@H]5CC[C@]5(C)[C@@H](C7=CC(=O)OC7)CC[C@]65O)C4)O[C@@H]3C)O[C@@H]2C)C[C@H](O)[C@@H]1O	1.85
CCCOC(=O)C(C(=O)OCCC)=C1SCCS1	3.35
CNC1CCc2ccccc2C1 (stereo not drawn)	2.38
Cc1coc2ccc3ccc(=O)oc3c12	2.38
